Tested on: yeast genes (level of expressed mRNA)
Assay: DNA chip analysis of expressed mRNA of yeast genes after 2 h culture with a toxic chemical substance
Format: cell-based, Saccharomyces cerevisiae S288C
Conditions: for The level of expressed mRNA in the presence of chemical substance/ (ratio to absence of chemical substance): stress protein genes, DNA chip
Method: Yeast (Saccharomyces cerevtisiae S288C (α SUC2mal mel gap2 CUP1)) were cultured at 25° C. on YPD medium (yeast extract 1%, polypepton 2%, glucose 2%). One of toxic chemical substances was added to the cell at logarithmic growth phase, and the cell was further cultured for two hours. Cell was cultured without any chemical substance in the same condition, and was used as control. Concentrations of the chemical substances were defined to inhibit the growth of the yeast but not lead to death.
After the completion of cultivation, the culture was centrifuged to collect the cells. To the cells, sodium acetate buffer (50 mM sodium acetate, 10 mM EDTA, 1% SDS) was added, and the mixture was shaken at 65° C. for five minutes, followed by returning to room temperature, and obtaining the supernatant, which procedure was repeated two times. To the supernatant, ½ amount of a solution of phenol/chloroform was added, and the mixture was centrifuged to give a supernatant, which was added with an equal amount of chloroform, and the mixture was centrifuged to give a supernatant. To the supernatant, an equal amount of isopropanol containing 0.3 M sodium acetate was added, and the mixture was allowed to stand at room temperature for 30 minutes, after which the mixture was centrifuged to give a sediment of the whole RNAs. Seventy % ethanol was added to the sediment, and the mixture was again centrifuged to give a sediment, which was then dried and dissolved in water. mRNA was isolated from the whole RNAs as followings. In view of the fact that a poly A chain is attached to the 3′ terminus of mRNA, a polynucleotide having a poly T structure which was immobilized on the surface of latex beads was used to trap the mRNA, and then the mRNA was washed and eluted with spine column (Oligotex-dT30<Super>mRNA Purification Kit, Takara). Reverse transcription of the mRNA was conducted with a reverse transcriptase (Super Script II Reverse Transcriptase; catalogue No. 18064-014, GibcoBRL) using fluorescence-labeled nucleotides to give cDNAs that were introduced with Cy3-dUTP or Cy5-dUTP during the reverse transcription.
The labeled cDNAs were dissolved in TE buffer (10 mM Tris-HCl/1 mM EDTA, pH8.0), and the solution was dropped on the DNA chip containing the whole genes of yeast (DNA Chip Research Inc. Japan) so that the cDNAs were hybridized on the DNA chip at 65° C. for over 12 hours. The fluoresces intensity of the DNA chip was read with a scanner, and the ratio relative to the fluorescence intensity resulting from the absence of chemical substance was estimated as the following, which is shown in Tables 1 to 9: [formula]
In the Tables, “Intensity” indicated in the rightmost column is a value of the level of expressed mRNA of each gene in control cells as divided by the average level of the expressions of the whole genes.

COc1cc(CNC(=O)CCCCC=CC(C)C)ccc1O [(12), 8-methyl-N-vanillyl-6-nonenamide]
The level of expressed mRNA in the presence of chemical substance/ (in its absence), gene YDR073W (yeast gene YDR073W, ratio of DNA chip fluorescence intensity to that without chemical substance): 0.8
The level of expressed mRNA in the presence of chemical substance/ in its absence, gene YDR079W (yeast gene YDR079W, energy system protein genes, 2 h culture with the chemical, ratio to control without chemical): 1.1
The level of expressed mRNA in the presence of chemical substance/ (ratio to absence), gene YDR079W (yeast gene YDR079W, mitochondria-located protein genes, 2 h culture with chemical): 1.1
The level of expressed mRNA in the presence of chemical substance/The level of expressed mRNA in the absence of chemical substance (yeast gene YDR084C): 0.7
The level of expressed mRNA in the presence of chemical substance/The level of expressed mRNA in the absence of chemical substance (yeast gene YDR085C): 1.6
The level of expressed mRNA in the presence of chemical substance/The level of expressed mRNA in the absence of chemical substance (yeast gene YDR104C): 1.1
The level of expressed mRNA in the presence of chemical substance/The level of expressed mRNA in the absence of chemical substance (yeast gene YDR115W): 0.9
The level of expressed mRNA in the presence of chemical substance/The level of expressed mRNA in the absence of chemical substance (yeast gene YDR259C): 1.0
The level of expressed mRNA in the presence of chemical substance/ (in its absence), gene YDR297W (yeast gene YDR297W, ratio of DNA chip fluorescence intensity to that without chemical substance): 1.0
The level of expressed mRNA in the presence of chemical substance/The level of expressed mRNA in the absence of chemical substance (yeast gene YDR315C): 0.6
The level of expressed mRNA in the presence of chemical substance/The level of expressed mRNA in the absence of chemical substance (yeast gene YDR358W): 1.1
The level of expressed mRNA in the presence of chemical substance/ (ratio to absence), gene YDR377W (yeast gene YDR377W, mitochondria-located protein genes, 2 h culture with chemical): 0.9
The level of expressed mRNA in the presence of chemical substance/ (in its absence), gene YDR387C (yeast gene YDR387C, ratio of DNA chip fluorescence intensity to that without chemical substance): 0.9
The level of expressed mRNA in the presence of chemical substance/The level of expressed mRNA in the absence of chemical substance (yeast gene YDR388W): 0.8
The level of expressed mRNA in the presence of chemical substance/The level of expressed mRNA in the absence of chemical substance (yeast gene YDR406W): 3.9
The level of expressed mRNA in the presence of chemical substance/The level of expressed mRNA in the absence of chemical substance (yeast gene YDR432W): 0.7
The level of expressed mRNA in the presence of chemical substance/The level of expressed mRNA in the absence of chemical substance (yeast gene YDR481C): 0.9
The level of expressed mRNA in the presence of chemical substance/The level of expressed mRNA in the absence of chemical substance (yeast gene YDR510W): 1.4
The level of expressed mRNA in the presence of chemical substance/ (ratio to absence of chemical substance) (yeast gene YEL039C): 0.6
The level of expressed mRNA in the presence of chemical substance/The level of expressed mRNA in the absence of chemical substance (yeast gene YEL042W): 1.0
The level of expressed mRNA in the presence of chemical substance/The level of expressed mRNA in the absence of chemical substance (yeast gene YEL066W): 0.8
The level of expressed mRNA in the presence of chemical substance/ (in its absence), gene YER015W (yeast gene YER015W, ratio of DNA chip fluorescence intensity to that without chemical substance): 0.9
The level of expressed mRNA in the presence of chemical substance/The level of expressed mRNA in the absence of chemical substance (yeast gene YER039C): 0.9
The level of expressed mRNA in the presence of chemical substance/ (ratio to absence of chemical substance) (yeast gene YER057C): 1.5
The level of expressed mRNA in the presence of chemical substance/The level of expressed mRNA in the absence of chemical substance (yeast gene YER107C): 0.7
The level of expressed mRNA in the presence of chemical substance/The level of expressed mRNA in the absence of chemical substance (yeast gene YER130C): 1.0
The level of expressed mRNA in the presence of chemical substance/The level of expressed mRNA in the absence of chemical substance (yeast gene YFL028C): 1.1
The level of expressed mRNA in the presence of chemical substance/The level of expressed mRNA in the absence of chemical substance (yeast gene YFL043C): 0.9
The level of expressed mRNA in the presence of chemical substance/The level of expressed mRNA in the absence of chemical substance (yeast gene YFR015C, two hours culture): 0.4
The level of expressed mRNA in the presence of chemical substance/The level of expressed mRNA in the absence of chemical substance (yeast gene YFR024C): 1.5
The level of expressed mRNA in the presence of chemical substance/ (in its absence), gene YGL035C (yeast gene YGL035C, ratio of DNA chip fluorescence intensity to that without chemical substance): 0.9
The level of expressed mRNA in the presence of chemical substance/ (in its absence), gene YGL115W (yeast gene YGL115W, ratio of DNA chip fluorescence intensity to that without chemical substance): 0.9
The level of expressed mRNA in the presence of chemical substance/ (ratio to absence of chemical substance) (yeast gene YGL115W): 0.9
The level of expressed mRNA in the presence of chemical substance/The level of expressed mRNA in the absence of chemical substance (yeast gene YGL158W): 1.3
The level of expressed mRNA in the presence of chemical substance/ (ratio to absence), gene YGL187C (yeast gene YGL187C, mitochondria-located protein genes, 2 h culture with chemical): 0.8
The level of expressed mRNA in the presence of chemical substance/ (in its absence), gene YGL205W (yeast gene YGL205W, ratio of DNA chip fluorescence intensity to that without chemical substance): 1.1
The level of expressed mRNA in the presence of chemical substance/The level of expressed mRNA in the absence of chemical substance (yeast gene YGL229C): 1.1
The level of expressed mRNA in the presence of chemical substance/The level of expressed mRNA in the absence of chemical substance (yeast gene YGR008C, two hours culture): 2.0
The level of expressed mRNA in the presence of chemical substance/ in its absence, gene YGR062C (yeast gene YGR062C, energy system protein genes, 2 h culture with the chemical, ratio to control without chemical): 1.0
The level of expressed mRNA in the presence of chemical substance/ (ratio to absence), gene YGR062C (yeast gene YGR062C, mitochondria-located protein genes, 2 h culture with chemical): 1.0
The level of expressed mRNA in the presence of chemical substance/ (in its absence), gene YGR096W (yeast gene YGR096W, ratio of DNA chip fluorescence intensity to that without chemical substance): 0.8
The level of expressed mRNA in the presence of chemical substance/The level of expressed mRNA in the absence of chemical substance (yeast gene YGR136W): 1.2
The level of expressed mRNA in the presence of chemical substance/The level of expressed mRNA in the absence of chemical substance (yeast gene YGR189C): 1.3
The level of expressed mRNA in the presence of chemical substance/The level of expressed mRNA in the absence of chemical substance (yeast gene YGR213C): 10.6
The level of expressed mRNA in the presence of chemical substance/The level of expressed mRNA in the absence of chemical substance (yeast gene YGR257C): 0.9
The level of expressed mRNA in the presence of chemical substance/The level of expressed mRNA in the absence of chemical substance (yeast gene YGR281W): 2.4
The level of expressed mRNA in the presence of chemical substance/ (in its absence), gene YGR287C (yeast gene YGR287C, ratio of DNA chip fluorescence intensity to that without chemical substance): 1.1
The level of expressed mRNA in the presence of chemical substance/ (in its absence), gene YGR288W (yeast gene YGR288W, ratio of DNA chip fluorescence intensity to that without chemical substance): 0.9
The level of expressed mRNA in the presence of chemical substance/ (ratio to absence of chemical substance) (yeast gene YHL028W): 1.5
The level of expressed mRNA in the presence of chemical substance/ (ratio to absence of chemical substance) (yeast gene YHL046C): 1.1
The level of expressed mRNA in the presence of chemical substance/The level of expressed mRNA in the absence of chemical substance (yeast gene YHL047C): 2.6
The level of expressed mRNA in the presence of chemical substance/The level of expressed mRNA in the absence of chemical substance (yeast gene YHR004C): 0.9
The level of expressed mRNA in the presence of chemical substance/The level of expressed mRNA in the absence of chemical substance (yeast gene YHR071W): 0.8
The level of expressed mRNA in the presence of chemical substance/The level of expressed mRNA in the absence of chemical substance (yeast gene YHR139C): 1.6
The level of expressed mRNA in the presence of chemical substance/The level of expressed mRNA in the absence of chemical substance (yeast gene YHR142W): 1.3
The level of expressed mRNA in the presence of chemical substance/ (in its absence), gene YHR210C (yeast gene YHR210C, ratio of DNA chip fluorescence intensity to that without chemical substance): 0.5
The level of expressed mRNA in the presence of chemical substance/ (in its absence), gene YIL006W (yeast gene YIL006W, ratio of DNA chip fluorescence intensity to that without chemical substance): 0.9
The level of expressed mRNA in the presence of chemical substance/ (ratio to absence of chemical substance) (yeast gene YIL011W): 0.6

Source: US20050112573A1, “Method of detecting toxic substance” (priority 2001, published 2005)
